In ChEMBL document CHEMBL4266024, “Phytochemical Study of Senecio volckmannii Assisted by CASE-3D with Residual Dipolar Couplings and Isotropic 1H/13C NMR Chemical Shifts” (2018):

Columns and labels:
Type in all cases: functional
A549 = test: Growth inhibition of human A549 cells after 48 hrs by sulforhodamine B assay; settings: A549, 48 h
HBL-100 = test: Growth inhibition of human HBL100 cells after 48 hrs by sulforhodamine B assay; settings: HBL-100, 48 h
HeLa = test: Growth inhibition of human HeLa cells after 48 hrs by sulforhodamine B assay
SW1573 = test: Growth inhibition of human SW1573 cells after 48 hrs by sulforhodamine B assay; settings: SW1573, 48 h
T47D = test: Growth inhibition of human T47D cells after 48 hrs by sulforhodamine B assay
WiDr = test: Growth inhibition of human WiDr cells after 48 hrs by sulforhodamine B assay

GI50 (A549) [µM]	GI50 (HeLa) [µM]	GI50 (SW1573) [µM]	GI50 (T47D) [µM]	SMILES	GI50 (HBL-100) [µM]	GI50 (WiDr) [µM]
> 10	> 10	> 10	> 10	CC(C)=C1C[C@@]2(C)C(=CC1=O)CCC[C@@H]2C	> 10	> 10
> 10	> 10	> 10	> 10	C[C@H]1CCCC2=CC(=O)C(C(C)(C)O)=C[C@@]21C	> 10	> 10
> 10	> 10	> 10	> 10	CC1=C2C[C@@]3(C)[C@H](C[C@@]2(O)OC1=O)C(=O)CC[C@@H]3C	> 10	> 10
> 10	> 10	> 10	> 10	CC(C)=C1C[C@@]2(C)C(=CC1=O)[C@@H](O)CC[C@@H]2C	> 10	> 10
> 10	> 10	> 10	> 10	C[C@H]1CCCC2=CC(=O)[C@H](C(C)(C)O)C[C@@]21C	> 10	> 10
> 10	> 10	> 10	> 10	CC(C)=C1C[C@@]2(C)C(=CC1=O)[C@H](O)CC[C@@H]2C	> 10	> 10
> 10	> 10	> 10	> 10	C[C@H]1CC[C@@H](O)C2=CC(=O)C(C(C)(C)O)=C[C@@]21C (relative stereo)	> 10	> 10
> 10	> 10	> 10	> 10	CC(=O)C1=C[C@@]2(C)C(=CC1=O)CCC[C@@H]2C (relative stereo)	> 10	> 10
> 10	> 10	> 10	> 10	CC(C)=C1C[C@@]2(C)[C@H](CCC(=O)[C@@H]2C)CC1=O (relative stereo)	> 10	> 10
